Laboratory results taken from article PMC7078208, “Interaction of SHP-2 SH2 domains with PD-1 ITSM induces PD-1 dimerization and SHP-2 activation” (Communications Biology, 2020).

Tests used:
Format in all cases: biochemical
[1] = tested on: SHP-2-WT; experiment: SHP-2 phosphatase activity, DiFMUP substrate
[2] = tested on: SHP-2-R32A; experiment: SHP-2 phosphatase activity, DiFMUP substrate, R32A mutant; details: 4-Ahx spacer peptide; Fig. 5c
Description: (§1) Catalytic activity of SHP-2 was monitored by a fluorescent assay using the substrate 6,8-difluoro-4-[…] (DiFMUP) as previously with slight modifications[38],[68]. Specifically, the phosphatase reactions were performed in 50 mM HEPES, pH 7.4, 100 mM NaCl and 10 mM DTT in 96-well black polystyrene plate, flat bottom, non-binding surface, using a final reaction volume of 100 µl. In all, 1.6 µg/ml of SHP-2-WT or mutant proteins were incubated with 20 µM DiFMUP with the indicated concentrations of phosphotyrosyl peptides or without peptide at 37 °C. For some experiments with highly SHP-2-activating peptides we used 0.5 µg/ml of SHP-2-WT so that activity measurements could fall within range. Fluorescence signal was monitored every 1 min for 3 min by a SpectraMax5 microplate reader and reaction rate was calculated by the change of fluorescence signal with time using excitation and emission wavelengths of 340 nm and 450 nm, respectively. Under these conditions, product formation was linear with respect to the time of incubation. Results were normalized against the basal activity determined for each condition in the absence of peptide and activity was calculated.

[3] = tested on: SHP-2-R138A; experiment: SHP-2 phosphatase activity, DiFMUP substrate, R138A mutant; details: Fig. 5c
Description: as §1

TE(pY)ATIVFP-Ahx4-QTE(pY)ATIVFPS [bpITSM, bisphosphoryl ITSM-ITSM peptide with 4-Ahx spacer]
fold lower phosphopeptide concentration for robust increase in SHP-2 activity than pITIM-pITSM ([1]; DiFMUP substrate, Fig. 5a): 1000 fold | potency in inducing SHP-2 activation compared with bpIRS ([1]; Supplementary Fig. 12, peptides at 20 nM): approximately three times more potent | SHP-2 activity caused by peptide [2]: abrogated | SHP-2 activity caused by peptide ([3]; 4-Ahx spacer peptide): abrogated | peptide concentration at which a small induction of SHP-2 activity was observed [3]: above 1 µM
